Like-named read-outs stand apart in the source and are kept apart here.
Tests used:
mouse cGAS = target: T1, mouse cGAS (Mus musculus, UniProt Q8C6L5); assay: RapidFire mass spectrometry (RF-MS) cGAS enzymatic assay, cGAMP product formation; assay type: biochemical; conditions: for IC50: read-out: IC50; for effect of structural modification on cGAS inhibitory potency: compared with RU.365
T1 construct: recombinant full-length mouse cGAS in reaction buffer; His6-SUMO (N, cleaved yes); made in house; host or cells: E. coli BL21(DE3) RIL
Experimental: The liquid was collected at the well bottom using centrifugation for 30 s at 180×g. […] Plates were centrifuged for 30 s at 180×g to collect all liquid at the bottom of the wells. […] The reaction was stopped by addition of 65 µl of 0.5% (v/v) formic acid per well. The plates were centrifuged for 30 s at 180×g and sealed with a Velocity11 PlateLoc thermal plate sealer.
The solvent used for loading/washing process was an aqueous solution of 5 mM ammonium acetate, pH 10. […] Each sample of approximately 35 µl were aspirated from a 384-well plate and separated using a Graphitic carbon Type D cartridge. After each sample was loaded onto the cartridge it was washed for 4 s at 1.5 ml min^−1 using the aqueous solvent. ATP, GTP and cGAMP were eluted for 5 s using the organic solvent at a flow rate of 1.5 ml min^−1. The cartridge was then re-equilibrated with the aqueous solvent for 5 s at a flow rate of 1.5 ml min^−1. All samples were analyzed using a negative ionization mode in the mass spectrometer, with a gas temperature of 350 °C, nebulizer pressure of 35 psig, gas flow rate of 15 l min^−1. […] The Agilent RapidFire Integrator software was used to calculate the area under the curve (AUC) of the extracted ion counts for each analyte. Data points represent values of product formation. Catalytic rates expressed as percent product formation were calculated using the AUC of cGAMP and using the AUC’s of ATP and GTP to normalize for variations in the capacity of the solid phase extraction column during a screening run, as shown in the following formula: product formation (%) = [(AUCcGAMP × 100)/(AUCcGAMP + ½ AUCATP + ½ AUCGTP)].
To determine the percent inhibition of mouse cGAS the data was normalized against the positive control (column 24) and negative control (column 23). […] The quality of the screen was assessed by Z′ factor[57] calculated as follows: Z′ = 1−[3∗(standard deviation positive control + standard deviation negative control)/(average positive control—average negative control)].

45-bp dsDNA = assay: DNA intercalation: acridine orange displacement from dsDNA by fluorescence polarization; assay type: binding; conditions: Supplementary Table 2; for % intercalation at 30 µM: acridine orange displacement compared to mitoxantrone; for Polarization: compound 30 µM
Experimental: Ten microliters of HEN buffer (10 mM HEPES pH 7.5, 1 mM EDTA pH 7.5, 100 mM NaCl) were dispensed per well using a Thermo Multidrop Combi dispenser (Thermo Scientific). The liquid was collected at the well bottom using centrifugation for 30 s at 180×g. […] The final concentration of compounds in the assay was 30 µM. […] The liquid was collected at the well bottom using centrifugation for 30 s at 180×g. […] The liquid was collected at the well bottom using centrifugation for 30 s at 180 × g and the plates were incubated for 30 min. Mitoxantrone, a known DNA intercalator was used at 50 µM as a positive control, while DMSO alone was used as negative control. FP was measured using a Biotek Synergy Neo plate reader. […] All FP values are expressed in millipolarization (mP) units. The mP values were calculated using the equation mP = 1000 × [(I S−I SB)−(I P−I PB)]/[I S—I SB) + (I P−I PB)], where I S and […] to the parallel and perpendicular emission intensity, respectively, and I SB and I SP corresponds to parallel emission intensity perpendicular emission intensity of the buffer, respectively. The experimental G-factor, defined as G = I S/I P, was set to 1.0 in all experiments.

[1] = Supplementary Table 4, analogs of RU166365, m-cGAS inhibition
[2] = Supplementary Table 3, analogs more potent than RU166365

T1 sequence (Q8C6L5 whole entry): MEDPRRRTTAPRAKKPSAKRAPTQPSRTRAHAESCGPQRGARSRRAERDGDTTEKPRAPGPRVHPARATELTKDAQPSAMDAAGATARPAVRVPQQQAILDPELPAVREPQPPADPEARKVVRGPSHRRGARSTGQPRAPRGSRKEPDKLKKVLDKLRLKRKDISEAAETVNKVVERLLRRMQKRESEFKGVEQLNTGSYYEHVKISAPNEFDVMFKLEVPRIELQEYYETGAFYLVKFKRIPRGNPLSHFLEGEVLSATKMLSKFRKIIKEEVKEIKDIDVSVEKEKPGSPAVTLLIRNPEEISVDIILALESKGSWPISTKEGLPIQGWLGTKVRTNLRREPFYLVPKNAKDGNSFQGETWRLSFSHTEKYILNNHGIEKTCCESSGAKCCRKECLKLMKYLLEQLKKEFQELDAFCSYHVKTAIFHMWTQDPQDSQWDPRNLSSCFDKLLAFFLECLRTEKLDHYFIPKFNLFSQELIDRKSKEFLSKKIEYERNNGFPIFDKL

With `Cc1nn(-c2ncc(-c3ccccc3)[nH]2)c(O)c1C1OC(=O)c2ccccc21` (stereo not shown) [RU320574] the IC50 (mouse cGAS; [1]) was greater than 25 µM.
`COC(=O)c1cccc2c1C(c1c(C)nn(-c3nc4ccccc4[nH]3)c1O)OC2=O` (stereo not shown) [RU320513] gave an IC50 (mouse cGAS; [1]) greater than 25 µM.
Work on `Cc1nn(-c2nc3ccc(-c4ccccc4)cc3[nH]2)c(O)c1C1OC(=O)c2ccccc21` (stereo not shown) [RU320578] yielded an IC50 (mouse cGAS; [1]) of 3.36 µM.
For `COC(=O)C1=C(C)NC(C)=C(C(=O)OC)C1c1ccccc1[N+](=O)[O-]` [RU199], the IC50 (mouse cGAS; Supplementary Table 2, batch of compounds stored in the screening library) was 0.8 µM and the inhibition at 12.5 µM (mouse cGAS; Supplementary Table 2, compound 12.5 µM, read-out: % inhibition at 12.5 µM) was 91%.
In the case of `Cc1nn(-c2nc3ncccc3[nH]2)c(O)c1C1OC(=O)c2ccccc21` (stereo not shown) [RU320502], the IC50 (mouse cGAS; [1]) is reported as 11 µM.
For `Cc1nn(-c2nc3cc(Cl)cc(Cl)c3[nH]2)c(O)c1C1OC(=O)c2ccccc21` (stereo not shown) [RU320582], the IC50 (mouse cGAS; [2]) was 0.12 µM, the “effect of structural modification on cGAS inhibitory potency” value (shortened to “effect … on cGAS inhibitory potency”) (mouse cGAS) was “increased inhibitory potency” and the improvement in potency (mouse cGAS; relative to RU.365) was 17 fold.
In the case of `CC(C)c1c(C2OC(=O)c3ccccc32)c(O)nn1-c1nc2ccccc2[nH]1` (stereo not shown) [RU320514], the IC50 (mouse cGAS; [1]) is reported as greater than 25 µM.
With `COc1cccc2nc(-n3nc(C)c(C4OC(=O)c5ccccc54)c3O)[nH]c12` (stereo not shown) [RU320460] the IC50 (mouse cGAS; [1]) was 5.61 µM.
`CC(C)c1nn(-c2nc3ccccc3[nH]2)c(O)c1C1OC(=O)c2ccccc21` (stereo not shown) [RU320515] was tested, and the IC50 (mouse cGAS; [1]) was 7.16 µM.
Work on `COC(=O)Cc1cccc2c1C(=O)OC2c1c(C)nn(-c2nc3ccccc3[nH]2)c1O` (stereo not shown) [RU320579] yielded an IC50 (mouse cGAS; [1]) of 2.46 µM.
`CC(C)c1ccc2oc3nc(N)c(C(=O)O)cc3c(=O)c2c1` [RU185491] was tested, and the “% intercalation at 30 µM” value (45-bp dsDNA) was 1.5% and the Polarization (45-bp dsDNA) was 248 mP.
In the case of `COC(=O)c1ccc2c(c1)C(c1c(C)nn(-c3nc4ccccc4[nH]3)c1O)OC2=O` (stereo not shown) [RU320512], the IC50 (mouse cGAS; [1]) is reported as 8.58 µM.
For `Nc1ncnc2c1ncn2[C@@H]1O[C@H](COP(=O)(O)OP(=O)(O)OP(=O)(O)O)[C@@H](O)[C@H]1O` [ATP], the kcat (mouse cGAS; substrate of mouse cGAS, no inhibitor) was 0.383 s⁻¹ and the Km (mouse cGAS; substrate of mouse cGAS, allosteric sigmoidal fitting, no inhibitor) was 86 ± 6.7 µM.
With `O=[N+]([O-])c1cc([As](=O)(O)O)ccc1O` [RU297] the “% intercalation at 30 µM” value (45-bp dsDNA) was -9.8% and the Polarization (45-bp dsDNA) was 271 mP.
In the case of `COC(=O)c1cccc2c1C(=O)OC2c1c(C)nn(-c2nc3ccccc3[nH]2)c1O` (stereo not shown) [RU320511], the IC50 (mouse cGAS; [1]) is reported as 6.84 µM.
`Cc1nn(-c2nc3cccc(-c4ccccc4)c3[nH]2)c(O)c1C1OC(=O)c2ccccc21` (stereo not shown) [RU320575] showed an IC50 (mouse cGAS; [1]) of 2.35 µM.
With `Cc1nn(-c2nc3cccc(C(F)(F)F)c3[nH]2)c(O)c1C1OC(=O)c2ccccc21` (stereo not shown) [RU320581] the IC50 (mouse cGAS; [1]) was 3.3 µM.
`Cc1nn(-c2nc3ccc(C(=O)O)cc3[nH]2)c(O)c1C1OC(=O)c2ccccc21` (stereo not shown) [RU320577] was tested, and the IC50 (mouse cGAS; [1]) was 18 µM.
`Cc1nn(-c2nc3ccccc3[nH]2)c(O)c1C1OC(=O)c2cc(Br)ccc21` (stereo not shown) [RU320469] was tested, and the IC50 (mouse cGAS; [2]) was 1.32 µM and the “effect … on cGAS inhibitory potency” value (mouse cGAS) was “only minor variations in potency”.
Molecule `Cc1nn(-c2nc3ccccc3s2)c(O)c1C1NC(=O)c2ccccc21` (stereo not shown) [RU320466] has an IC50 (mouse cGAS; [1]) greater than 25 µM.
`Cc1nn(-c2nc3ccccc3[nH]2)c(O)c1C1OC(=O)c2cccc(Br)c21` (stereo not shown) [RU320504] gave an IC50 (mouse cGAS; [1]) of 19.6 µM.
For `Cc1nn(-c2nc3cccc(Br)c3[nH]2)c(O)c1C1OC(=O)c2ccccc21` (stereo not shown) [RU320467], the IC50 (mouse cGAS; [2]) was 0.38 µM and the “effect … on cGAS inhibitory potency” value (mouse cGAS) was “increased inhibitory potency”.
Molecule `CC(=O)N1CCc2c(c(C)nn2-c2nc3ccccc3[nH]2)C1c1ccccc1` (stereo not shown) [RU320517] has an IC50 (mouse cGAS; [1]) greater than 25 µM.
`COc1ccc2nc(-n3nc(C)c(C4OC(=O)c5ccccc54)c3O)[nH]c2c1` (stereo not shown) [RU320459] was tested, and the IC50 (mouse cGAS; [1]) was 7.34 µM.
With `Cc1ccc2nc(-n3nc(C)c(C4OC(=O)c5ccccc54)c3O)[nH]c2c1` (stereo not shown) [RU320461] the IC50 (mouse cGAS; [2]) was 0.86 µM and the “effect … on cGAS inhibitory potency” value (mouse cGAS) was “increased inhibitory potency”.
